Data taken from paper PMC5218480 (PLoS ONE, 2017).

Tested on: MV-4-11 cells
Test: Gene expression microarray analysis (Affymetrix PrimeView) and GSEA
Format: cell-based, human
Design: RFU PODN (11730768_x_at) / Fold change /veh PODN (11730768_x_at) / RFU LINC00158 (11744669_a_at) / Fold change /veh LINC00158 (11744669_a_at) / RFU DUSP10 (11751237_a_at) / Fold change /veh DUSP10 (11751237_a_at) / RFU ID3 (11757404_x_at) / Fold change /veh ID3 (11757404_x_at) / RFU PLEKHG5 (11737974_s_at) / Fold change /veh PLEKHG5 (11737974_s_at) / RFU LRRC4B (11730491_at) / Fold change /veh LRRC4B (11730491_at) / RFU GIMAP4 (11747438_a_at) / Fold change /veh GIMAP4 (11747438_a_at) / RFU KRT8 (11758183_x_at) / Fold change /veh KRT8 (11758183_x_at) / RFU CNN1 (11734310_a_at) / Fold change /veh CNN1 (11734310_a_at) / RFU VPS37D (11726825_at) / Fold change /veh VPS37D (11726825_at) / RFU C10orf10 (11716522_x_at) / Fold change /veh C10orf10 (11716522_x_at) / RFU KIR2DL2 /// KIR2DL4 /// KIR2DL5A /// KIR2DL5B /// KIR2DS1 /// KIR2DS2 /// KIR2DS3 /// KIR2DS4 /// KIR3DL3 /// KIR3DL3 /// KIR3DS1 (11738374_at) / Fold change /veh KIR2DL2 /// KIR2DL4 /// KIR2DL5A /// KIR2DL5B /// KIR2DS1 /// KIR2DS2 /// KIR2DS3 /// KIR2DS4 /// KIR3DL3 /// KIR3DL3 /// KIR3DS1 (11738374_at) / RFU C1QL1 (11718748_at) / Fold change /veh C1QL1 (11718748_at) / RFU TMPRSS4 (11747572_a_at) / Fold change /veh TMPRSS4 (11747572_a_at) / RFU HAMP (11756126_x_at) / Fold change /veh HAMP (11756126_x_at) / RFU RNFT2 (11725882_a_at) / Fold change /veh RNFT2 (11725882_a_at) / RFU NR4A2 (11747474_a_at) / Fold change /veh NR4A2 (11747474_a_at) / RFU ABCC12 (11746883_a_at) / Fold change /veh ABCC12 (11746883_a_at) / RFU TMEM136 (11760407_x_at) / Fold change /veh TMEM136 (11760407_x_at) / RFU CLDN22 /// WWC2 (11732394_at) / Fold change /veh CLDN22 /// WWC2 (11732394_at) / RFU HLA-DPB1 (11760878_x_at) / Fold change /veh HLA-DPB1 (11760878_x_at) / RFU SPINT1 (11716480_a_at) / Fold change /veh SPINT1 (11716480_a_at) / RFU GAP43 (11754022_s_at) / Fold change /veh GAP43 (11754022_s_at) / RFU A4GNT (11735810_at) / Fold change /veh A4GNT (11735810_at) / RFU PRB3 (11715151_x_at) / Fold change /veh PRB3 (11715151_x_at) / RFU TUBB4B (11761932_at) / Fold change /veh TUBB4B (11761932_at) / RFU CAPN14 (11732068_a_at) / Fold change /veh CAPN14 (11732068_a_at) / RFU TMCC2 (11721928_a_at) / Fold change /veh TMCC2 (11721928_a_at) / RFU IRGQ (11745062_a_at) / Fold change /veh IRGQ (11745062_a_at) / RFU FAM174B (11720279_a_at) / Fold change /veh FAM174B (11720279_a_at) / RFU TMPRSS4 (11748680_a_at) / Fold change /veh TMPRSS4 (11748680_a_at) / RFU FAM212B (11763350_a_at) / Fold change /veh FAM212B (11763350_a_at) / RFU PLEKHG5 (11743358_a_at) / Fold change /veh PLEKHG5 (11743358_a_at) / RFU ZSCAN30 (11745921_a_at) / Fold change /veh ZSCAN30 (11745921_a_at) / RFU CMKLR1 (11741424_a_at) / Fold change /veh CMKLR1 (11741424_a_at) / RFU LOC101060620 /// MAPK8IP1 (11723275_at) / Fold change /veh LOC101060620 /// MAPK8IP1 (11723275_at) / RFU SPTSSB (11747773_x_at) / Fold change /veh SPTSSB (11747773_x_at) / RFU PRSS12 (11739890_at) / Fold change /veh PRSS12 (11739890_at) / RFU BIN1 (11741810_x_at) / Fold change /veh BIN1 (11741810_x_at) / RFU WNT11 (11732464_a_at) / Fold change /veh WNT11 (11732464_a_at) / RFU C10orf10 (11716521_a_at) / Fold change /veh C10orf10 (11716521_a_at) / RFU C5orf56 (11738089_at) / Fold change /veh C5orf56 (11738089_at) / RFU CYB561 (11721691_x_at) / Fold change /veh CYB561 (11721691_x_at) / RFU ANKRD19P (11752326_a_at) / Fold change /veh ANKRD19P (11752326_a_at) / RFU OR2T12 /// OR2T33 /// OR2T8 (11738714_s_at) / Fold change /veh OR2T12 /// OR2T33 /// OR2T8 (11738714_s_at) / RFU VCAN (11748164_a_at) / Fold change /veh VCAN (11748164_a_at) / RFU JSRP1 (11732532_at) / Fold change /veh JSRP1 (11732532_at) / RFU KRTAP10-11 (11738290_x_at) / Fold change /veh KRTAP10-11 (11738290_x_at) / RFU MYO3A (11730013_a_at) / Fold change /veh MYO3A (11730013_a_at) / RFU EBF3 (11725865_a_at) / Fold change /veh EBF3 (11725865_a_at) / RFU CAMK2N1 (11719241_x_at) / Fold change /veh CAMK2N1 (11719241_x_at) / RFU C5orf56 (11738088_a_at) / Fold change /veh C5orf56 (11738088_a_at) / RFU OLFML3 (11715873_a_at) / Fold change /veh OLFML3 (11715873_a_at) / RFU LOC100653217 /// NTM (11731650_a_at) / Fold change /veh LOC100653217 /// NTM (11731650_a_at) / RFU MAPK11 (11762145_a_at) / Fold change /veh MAPK11 (11762145_a_at) / RFU FIZ1 (11724087_x_at) / Fold change /veh FIZ1 (11724087_x_at) / RFU OASL (11726364_x_at) / Fold change /veh OASL (11726364_x_at) / RFU SOX15 (11748057_x_at) / Fold change /veh SOX15 (11748057_x_at) / RFU CD79A (11719716_a_at) / Fold change /veh CD79A (11719716_a_at) / RFU HIST1H1D (11736915_at) / Fold change /veh HIST1H1D (11736915_at) / RFU CASKIN2 (11723855_a_at) / Fold change /veh CASKIN2 (11723855_a_at) / RFU LOC730098 (11760151_x_at) / Fold change /veh LOC730098 (11760151_x_at) / RFU OR4N2 (11742367_at) / Fold change /veh OR4N2 (11742367_at) / RFU PRRT2 (11749266_a_at) / Fold change /veh PRRT2 (11749266_a_at) / RFU SNX32 (11753110_a_at) / Fold change /veh SNX32 (11753110_a_at) / RFU CDHR5 (11726645_a_at) / Fold change /veh CDHR5 (11726645_a_at) / RFU RCAN1 (11760418_a_at) / Fold change /veh RCAN1 (11760418_a_at) / RFU FAM167A (11723789_a_at) / Fold change /veh FAM167A (11723789_a_at) / RFU FAM26E (11764081_at) / Fold change /veh FAM26E (11764081_at) / RFU ISYNA1 (11749810_s_at) / Fold change /veh ISYNA1 (11749810_s_at) / RFU ACY1 (11761880_at) / Fold change /veh ACY1 (11761880_at) / RFU 11764098_at / Fold change /veh 11764098_at / RFU SAMD14 (11745864_x_at) / Fold change /veh SAMD14 (11745864_x_at) / RFU NPB (11741838_a_at) / Fold change /veh NPB (11741838_a_at) / RFU TMPRSS6 (11731388_a_at) / Fold change /veh TMPRSS6 (11731388_a_at) / RFU KRTAP10-2 (11738614_at) / Fold change /veh KRTAP10-2 (11738614_at) / RFU ARHGAP8 /// PRR5-ARHGAP8 (11727945_x_at) / Fold change /veh ARHGAP8 /// PRR5-ARHGAP8 (11727945_x_at) / RFU KRTAP5-7 /// NADSYN1 (11734609_at) / Fold change /veh KRTAP5-7 /// NADSYN1 (11734609_at) / RFU RASL12 (11751679_a_at) / Fold change /veh RASL12 (11751679_a_at) / RFU CDKN2B (11736163_a_at) / Fold change /veh CDKN2B (11736163_a_at) / RFU PRF1 (11729649_at) / Fold change /veh PRF1 (11729649_at) / RFU, ZNF638 /// ZNF638-IT1 / Fold change vs veh, ZNF638 /// ZNF638-IT1 / RFU, PANK3 / Fold change vs veh, PANK3 / RFU, SH3YL1 / Fold change vs veh, SH3YL1 / RFU, ZEB2 / Fold change vs veh, ZEB2 / RFU, NRIP1 / Fold change vs veh, NRIP1 / RFU, PTTG1IP / Fold change vs veh, PTTG1IP / RFU, CAPN2 / Fold change vs veh, CAPN2 / RFU, MED14 / Fold change vs veh, MED14 / RFU, SNORA58 / Fold change vs veh, SNORA58 / RFU, C1orf63 / Fold change vs veh, C1orf63 / RFU, LRRFIP1 / Fold change vs veh, LRRFIP1 / RFU, NDUFAF7 / Fold change vs veh, NDUFAF7 / RFU, SLC12A2 / Fold change vs veh, SLC12A2 / RFU, IBTK / Fold change vs veh, IBTK / RFU, ESF1 / Fold change vs veh, ESF1 / Fold change vs veh, TMEM50B / RFU, TAOK1 / Fold change vs veh, TAOK1 / RFU, ACBD3 / Fold change vs veh, ACBD3 / RFU, TMA16 / Fold change vs veh, TMA16 / RFU, RWDD3 / Fold change vs veh, RWDD3 / RFU, BCAT1 / Fold change vs veh, BCAT1 / RFU, EDEM3 / Fold change vs veh, EDEM3 / RFU, TMEM33 / Fold change vs veh, TMEM33 / RFU, WDR75 / Fold change vs veh, WDR75 / RFU, AHCTF1 / Fold change vs veh, AHCTF1 / RFU, TFRC / Fold change vs veh, TFRC / RFU, ZDHHC17 / Fold change vs veh, ZDHHC17 / RFU, NOM1 / Fold change vs veh, NOM1 / RFU, ARL8B / Fold change vs veh, ARL8B / RFU, ZBTB11 / Fold change vs veh, ZBTB11 / RFU, TAMM41 / Fold change vs veh, TAMM41 / RFU, KIAA1704 /// LOC100996395 / Fold change vs veh, KIAA1704 /// LOC100996395 / RFU, ING1 / Fold change vs veh, ING1 / RFU, TRMT61B / Fold change vs veh, TRMT61B / RFU, FUBP3 / Fold change vs veh, FUBP3 / RFU, TP53 / Fold change vs veh, TP53 / RFU, TNKS2 / Fold change vs veh, TNKS2 / RFU, ZFP14 / Fold change vs veh, ZFP14 / RFU, ACTR2 / Fold change vs veh, ACTR2 / RFU, PPP3R1 / Fold change vs veh, PPP3R1 / RFU, PIK3R1 / Fold change vs veh, PIK3R1 / RFU, HNRNPA1 / Fold change vs veh, HNRNPA1 / RFU, RNF170 / Fold change vs veh, RNF170 / RFU, ZNF28 / Fold change vs veh, ZNF28 / RFU, RNGTT / Fold change vs veh, RNGTT / RFU, OGT / Fold change vs veh, OGT / RFU, BRD1 / Fold change vs veh, BRD1 / RFU, MARS / Fold change vs veh, MARS / RFU, ZNF655 / Fold change vs veh, ZNF655 / RFU, FAHD1 / Fold change vs veh, FAHD1 / RFU, BDP1 / Fold change vs veh, BDP1 / RFU, LRRCC1 / Fold change vs veh, LRRCC1 / RFU, ARID1A / Fold change vs veh, ARID1A / RFU, ZNF146 / Fold change vs veh, ZNF146 / RFU, ZNF330 / Fold change vs veh, ZNF330 / RFU, GPN3 / Fold change vs veh, GPN3 / RFU, C9orf123 / Fold change vs veh, C9orf123 / RFU, N4BP2L2 / Fold change vs veh, N4BP2L2 / RFU, ARFIP1 / Fold change vs veh, ARFIP1 / RFU, FAM179B / Fold change vs veh, FAM179B / RFU, BCL10 / Fold change vs veh, BCL10 / RFU, UHRF1BP1L / Fold change vs veh, UHRF1BP1L / RFU, BET1 / Fold change vs veh, BET1 / RFU, CNOT2 / Fold change vs veh, CNOT2 / RFU, ZNF268 / Fold change vs veh, ZNF268 / Fold change vs veh, ZNF507 / RFU, DGCR2 / Fold change vs veh, DGCR2 / RFU, WDSUB1 / Fold change vs veh, WDSUB1 / Fold change vs veh, HSP90B1 /// MIR3652 / RFU, ADSS / Fold change vs veh, ADSS / RFU, GK / Fold change vs veh, GK / RFU, ZNF148 / Fold change vs veh, ZNF148 / RFU, TAF9 / Fold change vs veh, TAF9 / RFU, SLC1A5 / Fold change vs veh, SLC1A5 / RFU, SLMO2 / Fold change vs veh, SLMO2 / RFU, ABCC4 / Fold change vs veh, ABCC4 / RFU, LOC101060439 /// RAP1B / Fold change vs veh, LOC101060439 /// RAP1B / RFU, RFX7 / Fold change vs veh, RFX7 / RFU, GTPBP10 / Fold change vs veh, GTPBP10 / RFU, CNEP1R1 / Fold change vs veh, CNEP1R1 / RFU, BIVM-ERCC5 /// ERCC5 / Fold change vs veh, BIVM-ERCC5 /// ERCC5 / RFU, ILF3 / Fold change vs veh, ILF3 / RFU 11762660_at / Fold change /veh 11762660_at / RFU VCAN (11757783_s_at) / Fold change /veh VCAN (11757783_s_at) / RFU DDX43 (11728927_at) / Fold change /veh DDX43 (11728927_at) / RFU KRT8 (11758188_x_at) / Fold change /veh KRT8 (11758188_x_at) / RFU NKD1 (11759106_at) / Fold change /veh NKD1 (11759106_at) / RFU SRD5A1 (11742802_a_at) / Fold change /veh SRD5A1 (11742802_a_at) / RFU TPSAB1 /// TPSB2 (11721975_s_at) / Fold change /veh TPSAB1 /// TPSB2 (11721975_s_at) / RFU GSTM3 (11746129_a_at) / Fold change /veh GSTM3 (11746129_a_at) / RFU IL23R (11737362_x_at) / Fold change /veh IL23R (11737362_x_at) / RFU TMEM51 (11727254_a_at) / Fold change /veh TMEM51 (11727254_a_at) / RFU PIWIL2 (11732686_x_at) / Fold change /veh PIWIL2 (11732686_x_at) / RFU ORM1 (11744905_x_at) / Fold change /veh ORM1 (11744905_x_at) / RFU CCDC152 (11743942_at) / Fold change /veh CCDC152 (11743942_at) / RFU ECM1 (11717891_a_at) / Fold change /veh ECM1 (11717891_a_at) / RFU IL23R (11748794_a_at) / Fold change /veh IL23R (11748794_a_at) / RFU TNFAIP8L3 (11732012_x_at) / Fold change /veh TNFAIP8L3 (11732012_x_at) / RFU MBOAT4 (11741988_at) / Fold change /veh MBOAT4 (11741988_at) / RFU 11764193_at / Fold change /veh 11764193_at / RFU TMEM53 (11763286_at) / Fold change /veh TMEM53 (11763286_at) / RFU MAGEB2 (11727129_at) / Fold change /veh MAGEB2 (11727129_at) / RFU TMEM200A (11744735_a_at) / Fold change /veh TMEM200A (11744735_a_at) / RFU CCDC152 (11751479_a_at) / Fold change /veh CCDC152 (11751479_a_at) / RFU FAM211A (11726209_a_at) / Fold change /veh FAM211A (11726209_a_at) / RFU RGS16 (11746705_a_at) / Fold change /veh RGS16 (11746705_a_at) / RFU VCAN (11755009_s_at) / Fold change /veh VCAN (11755009_s_at) / RFU RHOB (11743442_s_at) / Fold change /veh RHOB (11743442_s_at) / RFU RGS16 (11720943_a_at) / Fold change /veh RGS16 (11720943_a_at) / RFU RGS16 (11720944_at) / Fold change /veh RGS16 (11720944_at) / RFU, VPS4B / Fold change vs veh, VPS4B / RFU, CREB1 / Fold change vs veh, CREB1 / RFU, DNAJC13 / Fold change vs veh, DNAJC13 / RFU, GNAQ / Fold change vs veh, GNAQ / RFU, CDK5R1 / Fold change vs veh, CDK5R1 / RFU, ZRANB3 / Fold change vs veh, ZRANB3 / RFU, CUL4A / Fold change vs veh, CUL4A / RFU, CCNY / Fold change vs veh, CCNY / RFU, UFL1 / Fold change vs veh, UFL1 / RFU, COG3 / Fold change vs veh, COG3 / RFU, DIAPH2 / Fold change vs veh, DIAPH2 / RFU, SKA2 / Fold change vs veh, SKA2 / RFU, AFF3 / Fold change vs veh, AFF3 / RFU, LMF1 / Fold change vs veh, LMF1 / RFU, IPO11 / Fold change vs veh, IPO11 / RFU, DFFB / Fold change vs veh, DFFB / RFU, FOXP1 / Fold change vs veh, FOXP1 / RFU, CARD8 / Fold change vs veh, CARD8 / RFU, STRN3 / Fold change vs veh, STRN3 / RFU, ADK / Fold change vs veh, ADK / RFU, RASSF2 / Fold change vs veh, RASSF2 / RFU, WIPF1 / Fold change vs veh, WIPF1 / RFU, LARP1B / Fold change vs veh, LARP1B / RFU, RASA1 / Fold change vs veh, RASA1 / RFU, RB1 / Fold change vs veh, RB1 / RFU, PPFIA1 / Fold change vs veh, PPFIA1 / RFU, MAT2A / Fold change vs veh, MAT2A / RFU, CCT5 / Fold change vs veh, CCT5 / RFU, WDR92 / Fold change vs veh, WDR92 / RFU, CUX1 / Fold change vs veh, CUX1 / RFU, TTC7A / Fold change vs veh, TTC7A / RFU, TMEM135 / Fold change vs veh, TMEM135 / RFU, DEPTOR / Fold change vs veh, DEPTOR / RFU, CPM / Fold change vs veh, CPM / RFU, DNAJB6 / Fold change vs veh, DNAJB6 / RFU, CACNA2D3 / Fold change vs veh, CACNA2D3 / RFU, DTX4 / Fold change vs veh, DTX4 / RFU, TFCP2 / Fold change vs veh, TFCP2 / RFU, GMCL1 /// GMCL1P1 / Fold change vs veh, GMCL1 /// GMCL1P1 / RFU, AEBP2 / Fold change vs veh, AEBP2 / RFU, SNHG1 /// SNORD22 /// SNORD25 /// SNORD26 /// SNORD27 /// SNORD28 /// SNORD29 /// SNORD31 / Fold change vs veh, SNHG1 /// SNORD22 /// SNORD25 /// SNORD26 /// SNORD27 /// SNORD28 /// SNORD29 /// SNORD31 / Fold change (Aza/veh), C12orf56 (ProbeSet 11735607_a_at) / Fold change (ACY-1035/veh), C12orf56 (ProbeSet 11735607_a_at) / Fold change (Aza/veh), FGFR1OP (ProbeSet 11751329_s_at) / Fold change (ACY-1035/veh), FGFR1OP (ProbeSet 11751329_s_at) / Fold change (Aza/veh), VPS36 (ProbeSet 11739960_a_at) / Fold change (ACY-1035/veh), VPS36 (ProbeSet 11739960_a_at) / RFU SYPL1 (11715823_x_at) / Fold change /veh SYPL1 (11715823_x_at) / RFU IGFBP7 (11715501_s_at) / Fold change /veh IGFBP7 (11715501_s_at) / RFU REEP3 (11722064_at) / Fold change /veh REEP3 (11722064_at) / RFU IGLL1 (11728026_x_at) / Fold change /veh IGLL1 (11728026_x_at): dose or concentration left out as unconfirmed
Conditions: ProbeSet 11731093_s_at; LIST B

`Nc1ncn([C@@H]2O[C@H](CO)[C@@H](O)[C@H]2O)c(=O)n1` [azacitidine] was tested. Which “Fold change vs veh, BRD1” value did it give?
Its value is 0.85.
